Assay [1] deals with Achromobacter spp. biofilm. As to the kind of experiment: Activity against biofilms. Type of assay: cell-based. To be noted: tested up to 250 μg/mL. The source says:
A dose response is also apparently associated with both compounds (FIG. 21).

The test system of a further assay is S. aureus ATCC 29213. To be noted: cited from earlier work; for Expected MIC: goal (acceptable range): control strain ATCC 29213.
Assay [2] concerns Pseudomonas aeruginosa strain PA01. As to the kind of experiment: Bacterial killing curves with and without CF patient sputum. In kind it is cell-based. To be noted: for bactericidal activity: 0.1 μg/mL.
For assay [3], the system named is C. parapsilosis ATCC 22019. The assay is described as follows: Antifungal broth microdilution (Example 13), QC organism. Type of assay: cell-based, Candida parapsilosis. To be noted: 24 hr, first of two values x/y (footnote b not given, presumably MIC2).
In assay [4] the test system is P. aeruginosa and A. baumannii. The assay is described as follows: Broth microdilution MIC (Example 11). Type of assay: cell-based, Pseudomonas aeruginosa, Acinetobacter baumannii. To be noted: read-out: MIC values. A general note: Dilution methods test growth across graded concentrations, often in twofold steps.
In assay [5] the test system is P. aeruginosa. To be noted: P. aeruginosa isolate 103; CLSI QC range in parenthesis; cited from earlier work.
The test system of assay [6] is Pseudomonas aeruginosa. To be noted: P. aeruginosa ATCC 27853; CLSI established QC range; cited from earlier work.
The subject of the next assay is Escherichia coli. To be noted: CLSI established QC range, cited from earlier work.
For assay [7], the system named is P. aeruginosa. To be noted: P. aeruginosa isolate 103; CLSI QC range in parenthesis; cited from earlier work. This is another data set of the same source.
The subject of assay [8] is Gram-positive organisms (S. aureus, S. pneumoniae). To be noted: cited from earlier work.
The test system of assay [9] is Pseudomonas aeruginosa. Type of assay: in vivo, Sprague Dawley rats. To be noted: rats, single dose of BisEDT, by Day 5. Here is the method: The efficacy of BisEDT in reducing pulmonary bacterial burden associated with pulmonary infection in a rat model of pulmonary Pseudomonas aeruginosa infection was evaluated. The results follow.
Conclusion: Animals were divided into four experiment inhalational treatment groups: 1) Group 1, a negative control group treated with saline on Days 0, 2, and 4; 2) Group 2, a positive control group treated with tobramycin (target of 20 mg/kg, BID, Days 1-4); 3) Group 3, BisEDT (target of 0.1 mg/kg, QD, Days 0, 2, 4); and Group 4, BisEDT (target of 0.25 mg/kg, once, Day −1). Animals were further divided into two cohorts, separated by one day, to accommodate the challenge and treatment of the number of animals. All animals were exposed per protocol except Group 1 and 3, cohort 2. These animals were exposed on Days 0, 1, and 4 instead of on Days 0, 2, 4.
An in vivo efficacy study was designed to assess the efficacy of inhaled BisEDT in a chronic model of P. aeruginosa pulmonary infection. […] Animals were euthanized at Study Day 3 and 5 and assessed for level of pulmonary bacterial burden. […]

The test system of a further assay is Enterobacteriaceae. To be noted: E. coli (MMX 102), QC; cited from earlier work.
In assay [10] the test system is P. aeruginosa. As to the kind of experiment: Broth microdilution MIC (Example 10). In kind it is cell-based, Pseudomonas aeruginosa. To be noted: initial MIC testing.
Assay [11] has as its system Pseudomonas aeruginosa. As to the kind of experiment: Broth microdilution MIC (Example 12). Type of assay: cell-based.

≈ marks a conversion by molar mass, not a printed value. Where two headings read alike, the source gives them in different places.

Broadly, the MIC is the lowest concentration that inhibits growth of the organism.

Turning to `CC(S)C(C)S.[Bi]` (stereo not drawn) [BisBDT, bismuth-2,3-butanedithiol], the “reduction in viable biofilm cells” value in assay [1] stood at 5 log. For the same compound, in the assay with S. aureus ATCC 29213, the “Expected MIC: goal (acceptable range)” value was 0.25 (0.12-0.5) mcg/mL. The bactericidal activity entry in assay [2] is given as “not bactericidal”. Also, the “more surviving in cultures with sputum” value in assay [2] (4 μg/mL, 3-6 hours) is reported as 0.5-0.8 log CFU/mL. In addition, the killing without sputum entry in [2] (4 μg/mL, over the 6 hour assay) is recorded as “about 1 log”. Also, in assay [2] (20 μg/mL, with and without sputum), the “time to sterilization below the limit of detection” value was not above 5 h. The same compound displayed an MIC 24 hr in [3] of 1 µg/mL. The minimum inhibitory concentration (MIC) in assay [4] lay in the range of 0.5 to 2 µg/mL.
For the compound `C1C[S][Bi]([S]CC[S][Bi]2[S]CC[S]2)[S]1` [BisEDT, Bismuth-1,2-ethanedithiol], the “CLSI QC range of MIC” value in the assay on P. aeruginosa [5] is “(0.5-4) μg/mL”; in the assay with P. aeruginosa [7], “(0.5-4)^2 μg/mL”. The results for the “QC range of MIC” value in the assay on Pseudomonas aeruginosa [6] and in the assay on Escherichia coli (E. coli ATCC 25922) were “(0.5-4) μg/mL” and “(0.5-4)^1 μg/mL”, respectively. The “QC Range 24 hr” value in the assay on S. aureus ATCC 29213 (S. aureus ATCC 29213, established QC range, 24 hr) was 0.12-1. The “Expected MIC: goal (acceptable range)” value with S. aureus ATCC 29213 was 0.25 to 0.5 µg/mL. In [2], the bactericidal activity result is recorded as “not bactericidal”. Also, the “CLSI acceptable MIC QC range” value in assay [8] (S. aureus ATCC 29213) and in assay [8] (S. pneumoniae ATCC 49619) was “(0.12-1) μg/mL” throughout. Besides, the “efficacy vs tobramycin positive control group” value in the assay with Pseudomonas aeruginosa [9] is “not significantly different”.
Regarding `C[C@@H](O)[C@H]1C(=O)N2C(C(=O)O)=C(S[C@@H]3CN[C@H](C(=O)N(C)C)C3)[C@H](C)[C@H]12` [MEM], the “CLSI QC range of MIC” value in the assay with P. aeruginosa [5] and in the assay with P. aeruginosa [7] was “(0.12-1) μg/mL” each time. The “QC range of MIC” value in the assay with Pseudomonas aeruginosa [6] is listed as “(0.12-1) μg/mL”; in the assay with Escherichia coli (E. coli ATCC 25922), “(0.008-0.06) μg/mL”; in the assay with Escherichia coli (E. coli ATCC 35218) it was “(0.008-0.06) μg/mL”. Further, the “CLSI Quality Control Range (MIC)” value in the assay on Enterobacteriaceae is on record as “(0.008-0.06) μg/mL”. Also, the MIC against P. aeruginosa [10] (P. aeruginosa isolate 103, QC strain) turned out to be 1 µg/mL (≈ 2.61 µM); with P. aeruginosa [10] (P. aeruginosa isolate 1497 (TOB-R AMK-R, CIP-I, AZT-R, COL-R)) it was 0.06 µg/mL (≈ 0.156 µM); against P. aeruginosa [10] (P. aeruginosa isolate 1530 (TOB-R, AMK-R, CIP-R)) it was 0.5 µg/mL (≈ 1.3 µM); in the assay on P. aeruginosa [10] (P. aeruginosa isolate 1553 (TOB-R, AMK-R, CIP-R)), 0.5 µg/mL (≈ 1.3 µM); in the assay with P. aeruginosa [10] (P. aeruginosa isolate 6322 (MEM-R, TOB-R, AMK-R, CIP-R, AZT-R)), 16 µg/mL (≈ 41.7 µM); with P. aeruginosa [10] (P. aeruginosa isolate 6977 (MEM-I, TOB-R, CIP-R, AZT-I)) it was 4 µg/mL (≈ 10.4 µM). The minimum inhibitory concentration (MIC) turned out to be 16 µg/mL (≈ 41.7 µM) against P. aeruginosa [10] (P. aeruginosa isolate 7745 (MEM-R, CIP-R, AZT-R)); 32 µg/mL (≈ 83.4 µM) in the assay with P. aeruginosa [10] (P. aeruginosa isolate 7754 (MEM-R, TOB-R, CIP-R, AZT-I)); 4 µg/mL (≈ 10.4 µM) against P. aeruginosa [10] (P. aeruginosa isolate 7762 (MEM-I, CIP-I)); 8 µg/mL (≈ 20.9 µM) against P. aeruginosa [10] (P. aeruginosa isolate 7871 (MEM-R, AZT-I)); 1 µg/mL (≈ 2.61 µM) in the assay with P. aeruginosa [10] (P. aeruginosa isolate 7874); 32 µg/mL (≈ 83.4 µM) against P. aeruginosa [10] (P. aeruginosa isolate 7886 (MEM-R, CIP-R, AZT-R)). Besides, the MIC in the assay on P. aeruginosa [10] (P. aeruginosa isolate 8797 (MEM-R, TOB-R, AMK-R, CIP-R, AZT-R, COL-R)) was 32 µg/mL (≈ 83.4 µM); with P. aeruginosa [10] (P. aeruginosa isolate 8798 (MEM-R, TOB-R, AMK-R, CIP-R, AZT-R, COL-R)) it was 64 µg/mL (≈ 167 µM); in the assay on P. aeruginosa [10] (P. aeruginosa isolate 9108 (CIP-R, AZT-I)), 0.5 µg/mL (≈ 1.3 µM); against Pseudomonas aeruginosa [11] (P. aeruginosa ATCC 27853, ATCC QC organism (Table 102)), 0.25 µg/mL (≈ 0.652 µM); in the assay with Pseudomonas aeruginosa [11] (P. aeruginosa CDC 230, VIM/OXA), more than 8 µg/mL; in the assay with Pseudomonas aeruginosa [11] (P. aeruginosa CDC 231, KPC/OXA), more than 8 µg/mL. In addition, the minimal inhibitory concentration (MIC) against Pseudomonas aeruginosa [11] (P. aeruginosa CDC 241, IMP/OXA) is more than 8 µg/mL; with Pseudomonas aeruginosa [11] (P. aeruginosa CDC 246, NDM/OXA) it was more than 8 µg/mL; in the assay with Pseudomonas aeruginosa [11] (P. aeruginosa CDC 250, NDM/OXA), more than 8 µg/mL; in the assay with Pseudomonas aeruginosa [11] (P. aeruginosa CDC 356, KPC) it was more than 8 µg/mL; in the assay on Pseudomonas aeruginosa [11] (P. aeruginosa CDC 439, IMP) it was more than 8 µg/mL; against Pseudomonas aeruginosa [11] (P. aeruginosa CDC 444, VIM) it was more than 8 µg/mL. The MIC in the assay on Pseudomonas aeruginosa [11] (P. aeruginosa CDC 457, VIM) was more than 8 µg/mL; against Pseudomonas aeruginosa [11] (P. aeruginosa CDC 516, KPC/AmpC), more than 8 µg/mL; against Pseudomonas aeruginosa [11] (P. aeruginosa CDC 518, KPC/AmpC), more than 8 µg/mL.

Values taken from US20230124862A1, “BISMUTH THIOL COMPOUNDS AND COMPOSITIONS AND METHODS OF TREATING MICROBIAL CO-INFECTIONS” (Microbion Corporation, priority 2020, published 2023).
